Test results published in patent US20260285850A1, “SUBSTITUTED OXAZOLIDINONES AND IMIDAZOLINONES AS HERBICIDES” (FMC CORPORATION, priority 2023, published 2026).

Experiments:
Type in all cases: in vivo
[1] = system: green foxtail (Setaria viridis); assay: Test A postemergence application, visual injury rating 0-100
In short: (§1)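 Visual injury ratings (0, no effect; 100, complete control) were assigned relative to untreated plants 10 days after treatment. Test chemicals, formulated with a surfactant-containing non-phytotoxic solvent, were applied in loam-sand soil either as a directed soil spray before emergence or to emerged plants, and plants were kept in a greenhouse.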

[2] = system: corn (Zea mays); assay: as above
In short: as §1

[3] = system: ryegrass, Italian (italian ryegrass, Lolium multiflorum); assay: as above
In short: as §1

[4] = system: palmer (palmer amaranth, palmer pigweed, Amaranthus palmeri); assay: as above
In short: as §1

[5] = system: ragweed (common ragweed, Ambrosia artemisiifolia); assay: as above
In short: as §1

[6] = system: barnyardgrass (Echinochloa crus-galli); assay: as above
In short: as §1

[7] = system: wheat (Triticum aestivum); assay: as above
In short: as §1

[8] = system: oat, wild (wild oat, Avena fatua); assay: as above
In short: as §1

[9] = system: horseweed (Erigeron canadensis); assay: as above
In short: as §1

[10] = system: blackgrass (Alopecurus myosuroides); assay: as above
In short: as §1

[11] = system: kochia (Bassia scoparia); assay: as above
In short: as §1

[12] = system: galium (catchweed bedstraw, Galium aparine); assay: as above
In short: as §1

[13] = system: soybean (Glycine max); assay: as above
In short: as §1

[14] = system: barnyardgrass (Echinochloa crusgalli); assay: Test B flooded paddy test, visual plant response rating 0-100; settings: 250 g ai/ha, Flood, applied to paddy water, evaluated after 13 days
In short: (§2)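 Visual scores versus untreated controls were recorded 13 days after treatment of greenhouse-held plants. At the 2-leaf stage, pots were flooded 3 cm above the soil surface and compounds added straight to the water.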

[15] = system: ducksalad (Heteranthera limosa); assay: as above; settings: 250 g ai/ha, Flood, applied to paddy water, evaluated after 13 days
In short: as §2

[16] = system: sedge, umbrella (small-flower umbrella sedge, Cyperus difformis); assay: as above; settings: 250 g ai/ha, Flood, applied to paddy water, evaluated after 13 days
In short: as §2

[17] = system: rice (Oryza sativa); assay: as above; settings: 250 g ai/ha, Flood, applied to paddy water, evaluated after 13 days
In short: as §2

[18] = system: green foxtail (Setaria viridis); assay: Test A preemergence soil spray, visual injury rating 0-100; settings: 10 days
In short: as §1

[19] = system: corn (Zea mays); assay: as above; settings: 10 days
In short: as §1

[20] = system: ryegrass, Italian (italian ryegrass, Lolium multiflorum); assay: as above; settings: 10 days
In short: as §1

[21] = system: palmer (palmer amaranth, palmer pigweed, Amaranthus palmeri); assay: as above; settings: 10 days
In short: as §1

[22] = system: ragweed (common ragweed, Ambrosia artemisiifolia); assay: as above; settings: 10 days
In short: as §1

[23] = system: barnyardgrass (Echinochloa crus-galli); assay: as above; settings: 10 days
In short: as §1

[24] = system: wheat (Triticum aestivum); assay: as above; settings: 10 days
In short: as §1

[25] = system: oat, wild (wild oat, Avena fatua); assay: as above; settings: 10 days
In short: as §1

[26] = system: blackgrass (Alopecurus myosuroides); assay: as above; settings: 10 days
In short: as §1

[27] = system: kochia (Bassia scoparia); assay: as above; settings: 10 days
In short: as §1

[28] = system: soybean (Glycine max); assay: as above; settings: 10 days
In short: as §1

[29] = 62 g ai/ha, postemergence, 10 days, 0 = no effect, 100 = complete control
[30] = Postemergence, 16 g ai/ha, greenhouse 10 days, 0 no effect, 100 complete control
[31] = 62 g ai/ha, 0 = no effect, 100 = complete control

## CC1(C(=O)NC2CC(C(=O)OCC(F)(F)F)C2)CN(c2cc(F)cc(F)c2)C(=O)O1 (stereo not shown) [Compound 121]
[1]; [29]
  Foxtail, Green plant response rating (0-100): 90
[1]; [30]
  Foxtail, Green plant response rating (0 to 100 scale): 70
[2]; [29]
  Corn plant response rating (0-100): 100
[2]; [30]
  Corn plant response rating (0 to 100 scale): 100
[3]; [29]
  Ryegrass, Italian plant response rating (0-100): 70
[3]; [30]
  Ryegrass, Italian plant response rating (0 to 100 scale): 20
[4]; [29]
  Pigweed, Palmer plant response rating (0-100): 70
[4]; [30]
  Pigweed, Palmer plant response rating (0 to 100 scale): 0
[5]; [29]
  Ragweed plant response rating (0-100): 0
[5]; [30]
  Ragweed plant response rating (0 to 100 scale): 0
[6]; [29]
  Barnyardgrass plant response rating (0-100): 100
[6]; [30]
  Barnyardgrass plant response rating (0 to 100 scale): 60
[7]; [29]
  Wheat plant response rating (0-100): 90
[7]; [30]
  Wheat plant response rating (0 to 100 scale): 90
[8]; [29]
  Oat, Wild plant response rating (0-100): 90
[8]; [30]
  Oat, Wild plant response rating (0 to 100 scale): 40
[9]; [29]
  Horseweed plant response rating (0-100): 10
[9]; [30]
  Horseweed plant response rating (0 to 100 scale): 0
[10]; [29]
  Blackgrass plant response rating (0-100): 100
[10]; [30]
  Blackgrass plant response rating (0 to 100 scale): 90
[11]; [29]
  Kochia plant response rating (0-100): 70
[11]; [30]
  Kochia plant response rating (0 to 100 scale): 10
[12]; [29]
  Galium plant response rating (0-100): 60
[12]; [30]
  Galium plant response rating (0 to 100 scale): 30
[13]; [29]
  Soybean plant response rating (0-100): 70
[13]; [30]
  Soybean plant response rating (0 to 100 scale): 50
[14]
  Plant response rating, Barnyardgrass (0 to 100 scale, 0 is no effect and 100 is complete control): 0
[15]
  Plant response rating, Ducksalad (0 to 100 scale, 0 is no effect and 100 is complete control): 0
[16]
  Plant response rating, Sedge, Umbrella (0 to 100 scale, 0 is no effect and 100 is complete control): 0
[17]
  Plant response rating, Rice (0 to 100 scale, 0 is no effect and 100 is complete control): 0
[18]; 16 g ai/ha, 0 to 100 scale
  Foxtail, Green plant response rating: 0
[18]; [31]
  Foxtail, Green plant response rating (0-100): 90
[19]; 16 g ai/ha, 0 to 100 scale
  Corn plant response rating: 20
[19]; [31]
  Corn plant response rating (0-100): 90
[20]; 16 g ai/ha, 0 to 100 scale
  Ryegrass, Italian plant response rating: 50
[20]; [31]
  Ryegrass, Italian plant response rating (0-100): 90
[21]; 16 g ai/ha, 0 to 100 scale
  Pigweed, Palmer plant response rating: 0
[21]; [31]
  Pigweed, Palmer plant response rating (0-100): 70
[22]; 16 g ai/ha, 0 to 100 scale
  Ragweed plant response rating: 0
[22]; [31]
  Ragweed plant response rating (0-100): 0
[23]; 16 g ai/ha, 0 to 100 scale
  Barnyardgrass plant response rating: 0
[23]; [31]
  Barnyardgrass plant response rating (0-100): 80
[24]; 16 g ai/ha, 0 to 100 scale
  Wheat plant response rating: 40
[24]; [31]
  Wheat plant response rating (0-100): 80
[25]; 16 g ai/ha, 0 to 100 scale
  Oat, Wild plant response rating: 90
[25]; [31]
  Oat, Wild plant response rating (0-100): 90
[26]; 16 g ai/ha, 0 to 100 scale
  Blackgrass plant response rating: 50
[26]; [31]
  Blackgrass plant response rating (0-100): 90
[27]; 16 g ai/ha, 0 to 100 scale
  Kochia plant response rating: 0
[27]; [31]
  Kochia plant response rating (0-100): 70
[28]; 16 g ai/ha, 0 to 100 scale
  Soybean plant response rating: 0
[28]; [31]
  Soybean plant response rating (0-100): 0
